Test results: US6737383B1, “Herbicidal oxadiazolidines” (priority 1999, dated 2004)

Tests used:
[1] = test system: wild oat; experiment: Test B pre/postemergence wild oat; format: in vivo, Avena fatua
Method in brief: (§1)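 Response is a visual 0-to-10 score relative to untreated plants, where 0 means no effect and 10 means complete control, taken twelve to sixteen days after application. Treatments went onto soil at planting and onto foliage of 1- to 4-leaf plants, using a surfactant-containing non-phytotoxic solvent.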

[2] = test system: rape; experiment: Test B pre/postemergence rape; format: in vivo, Brassica napus
Method in brief: as §1

[3] = test system: surinam grass; experiment: Test B pre/postemergence surinam grass; format: in vivo, Brachiaria decumbens
Method in brief: as §1

[4] = test system: duck salad; experiment: Test B flood test duck salad; format: in vivo, Heteranthera limosa
Method in brief: (§2)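 Read-out is a visual response score from 0 (no effect) to 10 (complete control), assigned by comparison with untreated controls. Treatment was applied at the 2-leaf stage, and plants stayed in the greenhouse for twelve to sixteen days before scoring.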

[5] = test system: blackgrass; experiment: Test B pre/postemergence blackgrass; format: in vivo, Alopecurus myosuroides
Method in brief: as §1

[6] = test system: sugar beet; experiment: Test B pre/postemergence sugar beet; format: in vivo, Beta vulgaris
Method in brief: as §1

[7] = test system: soybean; experiment: Test B pre/postemergence soybean; format: in vivo, Glycine max
Method in brief: as §1

[8] = test system: smallflower flatsedge; experiment: Test B flood test smallflower flatsedge; format: in vivo, Cyperus difformis
Method in brief: as §2

[9] = test system: velvetleaf; experiment: Test B pre/postemergence velvetleaf; format: in vivo, Abutilon theophrasti
Method in brief: as §1

[10] = test system: purple nutsedge; experiment: Test B pre/postemergence purple nutsedge; format: in vivo, Cyperus rotundus; details: Postemergence
Method in brief: as §1

[11] = test system: bedstraw; experiment: Test B pre/postemergence bedstraw; format: in vivo, Galium aparine
Method in brief: as §1

[12] = test system: crabgrass; experiment: Test B pre/postemergence crabgrass; format: in vivo, Digitaria sanguinalis
Method in brief: as §1

[13] = test system: pigweed; experiment: Test B pre/postemergence pigweed; format: in vivo, Amaranthus retroflexus
Method in brief: as §1

[14] = test system: rice; experiment: Test B flood test rice; format: in vivo, Oryza sativa
Method in brief: as §2

[15] = test system: wheat; experiment: Test B pre/postemergence wheat; format: in vivo, Triticum aestivum
Method in brief: as §1

[16] = test system: corn; experiment: Test B pre/postemergence corn; format: in vivo, Zea mays
Method in brief: as §1

[17] = Postemergence, Rate 250 g/ha, scale 0 to 10, 0 no effect, 10 complete control
[18] = Postemergence, Rate 1000 g/ha, scale 0 to 10 (0 no effect, 10 complete control)
[19] = Preemergence, Rate 125 g/ha, scale 0 to 10 (0 no effect, 10 complete control)
[20] = Preemergence, Rate 250 g/ha, scale of 0 to 10 where 0 is no effect and 10 is complete control
[21] = Preemergence, Rate 500 g/ha, scale 0 (no effect) to 10 (complete control)
[22] = Rate 125 g/ha, Postemergence, scale 0 to 10, 0 no effect, 10 complete control
[23] = Rate 1000 g/ha, Preemergence, scale 0 to 10 (0 no effect, 10 complete control)
[24] = Rate 500 g/ha, Postemergence, 0 to 10 scale (0 no effect, 10 complete control)
[25] = Rate 125 g/ha, Postemergence section (flood test species), scale 0 to 10, 0 no effect, 10 complete control
[26] = Rate 500 g/ha, Postemergence section of Table B, 0 to 10 scale (0 no effect, 10 complete control)
[27] = flood test, listed under Postemergence, Rate 250 g/ha, scale 0 to 10, 0 no effect, 10 complete control

Compound: CCN(CC)C(=O)n1oc(=O)n(-c2ccc(OC)cc2)c1=O [Compound 1]
- Wild oats plant response rating [1, 17]: 0
- Wild oats plant response rating [1, 18]: 0
- Plant response rating, Wild oats [1, 19]: 0
- Plant response rating, Wild oats [1, 20]: 0
- Wild oats plant response rating [1, 21]: 0
- Wild oats plant response rating [1, 22]: 0
- Plant response rating, Wild oats [1, 23]: 2
- Rape plant response rating [2, 17]: 0
- Rape plant response rating [2, 18]: 4
- Plant response rating, Rape [2, 19]: 0
- Plant response rating, Rape [2, 20]: 0
- Rape plant response rating [2, 21]: 0
- Rape plant response rating [2, 22]: 0
- Rape plant response rating [2, 24]: 2
- Plant response rating, Rape [2, 23]: 0
- B. signalgrass plant response rating [3, 17]: 7
- B. signalgrass plant response rating [3, 18]: 6
- Plant response rating, B. signalgrass [3, 19]: 0
- Plant response rating, B. signalgrass [3, 20]: 0
- B. signalgrass plant response rating [3, 21]: 6
- B. signalgrass plant response rating [3, 22]: 0
- B. signalgrass plant response rating [3, 24]: 7
- Plant response rating, B. signalgrass [3, 23]: 8
- Ducksalad plant response rating [4, 18]: 0
- Ducksalad plant response rating [4, 25]: 0
- Ducksalad plant response rating [4, 26]: 0
- Ducksalad plant response rating [4, 27]: 0
- Blackgrass plant response rating [5, 17]: 0
- Blackgrass plant response rating [5, 18]: 8
- Plant response rating, Blackgrass [5, 19]: 0
- Plant response rating, Blackgrass [5, 20]: 0
- Blackgrass plant response rating [5, 21]: 2
- Blackgrass plant response rating [5, 22]: 0
- Blackgrass plant response rating [5, 24]: 2
- Plant response rating, Blackgrass [5, 23]: 4
- Sugarbeets plant response rating [6, 17]: 0
- Sugarbeets plant response rating [6, 18]: 5
- Plant response rating, Sugarbeets [6, 19]: 0
- Plant response rating, Sugarbeets [6, 20]: 0
- Sugarbeets plant response rating [6, 21]: 0
- Sugarbeets plant response rating [6, 22]: 0
- Plant response rating, Sugarbeets [6, 23]: 0
- Soybean plant response rating [7, 17]: 0
- Soybean plant response rating [7, 18]: 2
- Plant response rating, Soybean [7, 19]: 0
- Plant response rating, Soybean [7, 20]: 0
- Soybean plant response rating [7, 21]: 0
- Soybean plant response rating [7, 22]: 0
- Plant response rating, Soybean [7, 23]: 0
- S. Flatsedge plant response rating [8, 18]: 0
- S. Flatsedge plant response rating [8, 25]: 0
- S. Flatsedge plant response rating [8, 27]: 0
- Velvetleaf plant response rating [9, 17]: 0
- Velvetleaf plant response rating [9, 18]: 0
- Plant response rating, Velvetleaf [9, 19]: 0
- Plant response rating, Velvetleaf [9, 20]: 0
- Velvetleaf plant response rating [9, 21]: 0
- Velvetleaf plant response rating [9, 22]: 0
- Plant response rating, Velvetleaf [9, 23]: 3
- Nutsedge plant response rating ([10]; Rate 250 g/ha, scale 0 to 10, 0 no effect, 10 complete control): 0
- Nutsedge plant response rating ([10]; Rate 1000 g/ha, scale 0 to 10 (0 no effect, 10 complete control)): 0
- Nutsedge plant response rating ([10]; Rate 125 g/ha, scale 0 to 10, 0 no effect, 10 complete control): 0
- Nutsedge plant response rating ([10]; Rate 500 g/ha, 0 to 10 scale (0 no effect, 10 complete control)): 0
- Bedstraw plant response rating [11, 17]: 0
- Bedstraw plant response rating [11, 18]: 0
- Plant response rating, Bedstraw [11, 19]: 0
- Plant response rating, Bedstraw [11, 20]: 0
- Bedstraw plant response rating [11, 21]: 0
- Bedstraw plant response rating [11, 22]: 0
- Bedstraw plant response rating [11, 24]: 0
- Plant response rating, Bedstraw [11, 23]: 0
- Crabgrass plant response rating [12, 17]: 5
- Crabgrass plant response rating [12, 18]: 9
- Plant response rating, Crabgrass [12, 19]: 4
- Plant response rating, Crabgrass [12, 20]: 8
- Crabgrass plant response rating [12, 21]: 8
- Crabgrass plant response rating [12, 22]: 0
- Crabgrass plant response rating [12, 24]: 8
- Plant response rating, Crabgrass [12, 23]: 9
- Redroot pigweed plant response rating [13, 17]: 4
- Redroot pigweed plant response rating [13, 18]: 9
- Plant response rating, Redroot pigweed [13, 19]: 0
- Plant response rating, Redroot pigweed [13, 20]: 0
- Redroot pigweed plant response rating [13, 21]: 2
- Redroot pigweed plant response rating [13, 22]: 2
- Redroot pigweed plant response rating [13, 24]: 8
- Plant response rating, Redroot pigweed [13, 23]: 2
- Rice plant response rating [14, 18]: 0
- Rice plant response rating [14, 25]: 0
- Rice plant response rating [14, 26]: 0
- Rice plant response rating [14, 27]: 0
- Wheat plant response rating [15, 17]: 0
- Wheat plant response rating [15, 18]: 0
- Plant response rating, Wheat [15, 19]: 0
- Plant response rating, Wheat [15, 20]: 0
- Wheat plant response rating [15, 21]: 0
- Wheat plant response rating [15, 22]: 0
- Plant response rating, Wheat [15, 23]: 0
- Corn plant response rating [16, 17]: 0
- Corn plant response rating [16, 18]: 0
- Plant response rating, Corn [16, 19]: 0
- Plant response rating, Corn [16, 20]: 0
- Corn plant response rating [16, 21]: 5
- Corn plant response rating [16, 22]: 0
- Corn plant response rating [16, 24]: 0
- Plant response rating, Corn [16, 23]: 7
